Measurements taken from publication PMC4847944 (Bioorganic & medicinal chemistry, 2014).
Where two headings read alike, the source gives them in different places. Marks after values point to notes of the source that are not given here.

How the values were obtained:
[1] = Solubility in phosphate buffer and cell culture media; assay type: physicochemical; settings: highest concentration tested per footnote f
MDA-kb2 cell line [2] = tested on: MDA-kb2 cell line
MDA-kb2 cell line [3] = experiment: Cytotoxicity in MDA-kb2 cells

| SMILES | Solubility limit in cell culture media [1] | MDA-kb2 cell culture LC50 (MDA-kb2 cell line [2]) | MDA-kb2 cell culture LC50 (MDA-kb2 cell line [3]; concentration at which cell viability was reduced by 50%, Promega Cell Titer Glo kit) [µM] | Cytotoxicity in MDA-kb2 cells (result in words) (MDA-kb2 cell line [3]; same conditions as the reporter assay) | Cytotoxicity in MDA-kb2 cells (result in words) (MDA-kb2 cell line [2]) |
| --- | --- | --- | --- | --- | --- |
| COC1=C2C[C@@H](C)C[C@H](OC)[C@H](O)[C@@H](C)/C=C(\C)[C@H](OC(N)=O)[C@@H](OC)/C=C\C=C(/C)C(=O)NC(=CC1=O)C2=O [Geldanamycin, geldanamycin] | >2^f μM | >2^f μM | – | – | – |
| CO[C@H]1[C@H](OC(=O)c2ccc(C)[nH]2)[C@H](O)[C@@H](Oc2ccc3c(O)c(NC(=O)c4c[nH]c(C(=O)Nc5c(O)c6ccc(O[C@H]7OC(C)(C)[C@@H](OC)[C@H](OC(=O)c8ccc(C)[nH]8)[C@@H]7O)c(C)c6oc5=O)c4C)c(=O)oc3c2C)OC1(C)C [Coumermycin A1, coumermycin A1] | – | – | 19.1 ± 9.1 | some accompanying toxicity | – |
| CO[C@@H]1[C@@H](OC(N)=O)[C@@H](O)[C@H](Oc2ccc3c(O)c(NC(=O)c4ccc(O)c(CC=C(C)C)c4)c(=O)oc3c2C)OC1(C)C [Novobiocin, novobiocin] | – | 690 ± 188 µM | – | – | some accompanying toxicity |
